What is called Ki is a dissociation constant, usually derived from enzyme kinetics or from competition with a known ligand.

In ChEMBL document CHEMBL1765058, “Structural basis for the interaction between carbonic anhydrase and 1,2,3,4-tetrahydroisoquinolin-2-ylsulfonamides” (J Med Chem, 2011) one finds Ki data, which are given here for 1 compound.

SMILES strings stand for the structures.

The target of this assay is Carbonic anhydrase 7 (Homo sapiens, UniProt P43166). Nature of the assay: Inhibition of human recombinant CAH7.
Carbonic anhydrase 7, sequence (P43166 whole entry): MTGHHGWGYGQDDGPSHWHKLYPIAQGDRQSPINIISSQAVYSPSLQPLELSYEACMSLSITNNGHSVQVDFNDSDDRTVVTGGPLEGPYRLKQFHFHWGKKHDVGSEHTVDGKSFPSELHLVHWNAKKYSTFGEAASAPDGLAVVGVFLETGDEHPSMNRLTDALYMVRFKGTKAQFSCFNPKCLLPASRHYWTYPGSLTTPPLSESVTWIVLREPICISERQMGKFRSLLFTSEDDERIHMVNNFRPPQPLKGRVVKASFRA

In the case of `COc1cc2c(cc1OC)C(C)N(S(N)(=O)=O)CC2` (stereo unspecified), the Ki is 6.4 nM.
